# From publication PMC11345841, “Exploring 2-Sulfonylpyrimidine Warheads as Acrylamide Surrogates for Targeted Covalent Inhibition: A BTK Story” (Journal of Medicinal Chemistry, 2024)
# pIC50: −log10 of the molar value. Like-named read-outs stand apart in the source and are kept apart here.
# Tests used:
# TMD8 cells = experiment: RNA-seq gene expression; settings: for Expr Log Ratio: 8d versus Ibrutinib
# LYN = target: T1, LYN (Homo sapiens, UniProt P07948); experiment: KINOMEscan ScanTK; assay type: binding
# T1 construct: purchased Eurofins DiscoverX KINOMEscan (scanTK)
# [1] = target: JAK3, catalytic domain (795–1124) (Homo sapiens, UniProt P52333); experiment: PhosphoSens enzymatic IC50 (AssayQuant)
# Description: Biochemical enzymatic IC50 data were generated by AssayQuant Technologies (Marlborough, MA) using the PhosphoSens Platform. […] Reaction rate versus log [inhibitor concentration] data were fitted to the four-parameter logistic equation [drawing 1]
# [2] = target: T2, JAK3(JH1domain-catalytic) (Homo sapiens, UniProt P52333); experiment: KINOMEscan ScanTK; assay type: binding
# T2 construct: JAK3(JH1domain-catalytic); purchased Eurofins DiscoverX KINOMEscan (scanTK)
# T2 sequence (P52333 822-1124 limits assumed): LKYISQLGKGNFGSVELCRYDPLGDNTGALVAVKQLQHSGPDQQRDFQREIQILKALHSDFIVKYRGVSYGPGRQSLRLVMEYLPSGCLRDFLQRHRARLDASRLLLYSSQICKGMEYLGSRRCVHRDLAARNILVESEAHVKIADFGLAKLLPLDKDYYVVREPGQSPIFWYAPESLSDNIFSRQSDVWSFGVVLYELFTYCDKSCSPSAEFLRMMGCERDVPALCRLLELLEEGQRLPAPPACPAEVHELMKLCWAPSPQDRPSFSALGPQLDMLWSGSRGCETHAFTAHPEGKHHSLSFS
# T1 sequence (P07948 whole entry): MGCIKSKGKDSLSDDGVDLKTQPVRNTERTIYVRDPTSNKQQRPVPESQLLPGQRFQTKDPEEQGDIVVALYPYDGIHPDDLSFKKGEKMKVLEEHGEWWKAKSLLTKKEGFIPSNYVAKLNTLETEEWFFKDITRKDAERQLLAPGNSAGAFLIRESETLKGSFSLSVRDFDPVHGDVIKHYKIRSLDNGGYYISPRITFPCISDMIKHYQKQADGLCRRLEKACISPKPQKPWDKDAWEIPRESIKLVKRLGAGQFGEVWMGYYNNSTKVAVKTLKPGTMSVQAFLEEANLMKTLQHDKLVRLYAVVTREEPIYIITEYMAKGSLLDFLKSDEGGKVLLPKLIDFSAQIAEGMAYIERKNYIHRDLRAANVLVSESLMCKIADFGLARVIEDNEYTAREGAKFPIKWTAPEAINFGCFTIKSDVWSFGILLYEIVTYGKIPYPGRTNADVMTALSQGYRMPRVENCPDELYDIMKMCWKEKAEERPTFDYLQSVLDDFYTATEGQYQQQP
# Chain of JAK3, catalytic domain (795–1124) (P52333 795-1124): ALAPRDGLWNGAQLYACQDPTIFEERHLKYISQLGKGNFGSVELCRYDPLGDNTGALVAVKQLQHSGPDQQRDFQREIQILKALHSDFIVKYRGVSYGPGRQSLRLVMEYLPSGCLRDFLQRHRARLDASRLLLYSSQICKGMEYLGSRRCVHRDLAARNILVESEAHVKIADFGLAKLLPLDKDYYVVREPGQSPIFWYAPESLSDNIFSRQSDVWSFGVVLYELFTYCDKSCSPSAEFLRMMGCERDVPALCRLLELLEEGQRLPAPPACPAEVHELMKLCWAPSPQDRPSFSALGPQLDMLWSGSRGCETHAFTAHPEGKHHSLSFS
structure (smiles),measurement,setting,value
"CNC(=O)c1cnc(S(C)(=O)=O)nc1N1CCCC(n2nc(-c3ccc(Oc4ccccc4)cc3)c3c(N)ncnc32)C1 (centres unmarked) [Compound 8d, 4-(3-(4-Amino-3-(4-phenoxyphenyl)-1H-pyrazolo[3,4-d]pyrimidin-1-yl)piperidin-1-yl)-N-methyl-2-(methylsulfonyl)pyrimidine-5-carboxamide]",Expr Log Ratio,TMD8 cells; LOX,-0.113
same,Expr Log Ratio,TMD8 cells; LOXL2,0.149
same,Expr Log Ratio,TMD8 cells; MAPK8,-0.028
same,Expr Log Ratio,TMD8 cells; MAPK9,0.146
same,Expr Log Ratio,TMD8 cells; MAPKAP1,-0.077
same,Expr Log Ratio,TMD8 cells; MDM4,-0.082
same,Expr Log Ratio,TMD8 cells; MED1,-0.016
same,Expr Log Ratio,TMD8 cells; MESP1,-0.242
same,Expr Log Ratio,TMD8 cells; MESP2,-0.023
same,Expr Log Ratio,TMD8 cells; MFN2,-0.162
same,Expr Log Ratio,TMD8 cells; MGAT3,-0.275
same,Expr Log Ratio,TMD8 cells; MGAT5,0.29
same,Expr Log Ratio,TMD8 cells; MPZ,-0.137
same,Expr Log Ratio,TMD8 cells; MTA3,-0.001
same,Expr Log Ratio,TMD8 cells; NCL,-0.053
same,Expr Log Ratio,TMD8 cells; NCOA2,0.045
same,Expr Log Ratio,TMD8 cells; NDRG2,0.057
same,Expr Log Ratio,TMD8 cells; NFIA,0.254
same,Expr Log Ratio,TMD8 cells; NFYB,0.006
same,Expr Log Ratio,TMD8 cells; NORAD,-0.057
same,Expr Log Ratio,TMD8 cells; NR1H3,0.155
same,Expr Log Ratio,TMD8 cells; OIP5-AS1,0.071
same,Expr Log Ratio,TMD8 cells; PADI2,0.089
same,Expr Log Ratio,TMD8 cells; PCGF2,0.108
same,Expr Log Ratio,TMD8 cells; PDCD4,0.188
same,Expr Log Ratio,TMD8 cells; PIAS3,0.008
same,Expr Log Ratio,TMD8 cells; POR,-0.13
same,Expr Log Ratio,TMD8 cells; PPIA,0.046
same,Expr Log Ratio,TMD8 cells; PTAFR,0.465
same,Expr Log Ratio,TMD8 cells; PTP4A3,-0.295
same,Expr Log Ratio,TMD8 cells; PTPN2,0.048
same,Expr Log Ratio,TMD8 cells; RALA,-0.18
same,Expr Log Ratio,TMD8 cells; REL,-0.144
same,Expr Log Ratio,TMD8 cells; RELA,-0.006
same,Expr Log Ratio,TMD8 cells; RNASEL,0.378
same,Expr Log Ratio,TMD8 cells; RPA1,0.039
same,Expr Log Ratio,TMD8 cells; RPS6KA5,-0.015
same,Expr Log Ratio,TMD8 cells; SCX,0.154
same,Expr Log Ratio,TMD8 cells; SDCBP,0.02
same,Expr Log Ratio,TMD8 cells; SDHB,0.024
same,Expr Log Ratio,TMD8 cells; SP3,-0.093
same,Expr Log Ratio,TMD8 cells; SP100,0.189
same,Expr Log Ratio,TMD8 cells; SPINT1,-0.109
same,Expr Log Ratio,TMD8 cells; ST6GAL1,-0.01
same,Expr Log Ratio,TMD8 cells; STS,0.181
same,Expr Log Ratio,TMD8 cells; TGFBR3,0.172
same,Expr Log Ratio,TMD8 cells; TGS1,0.171
same,expression of AHR target gene CYP1A1,"TMD8 cells; TMD8, 1 μM, 8 h",significantly downregulated
same,number of genes unchanged vs DMSO,"TMD8 cells; TMD8, 1 μM, 8 h",14389 genes
same,number of genes unchanged vs ibrutinib,"TMD8 cells; TMD8, 1 μM, 8 h",14881 genes
same,number of genes reduced vs DMSO,"TMD8 cells; TMD8, 1 μM, 8 h, FDR < 0.01, log2FC < -0.5",274 genes
same,number of genes increased vs DMSO,"TMD8 cells; TMD8, 1 μM, 8 h, FDR < 0.01, log2FC > 0.5",384 genes
same,number of genes increased vs ibrutinib,"TMD8 cells; TMD8, 1 μM, 8 h, p-value <0.01",105 genes
same,number of genes reduced vs ibrutinib,"TMD8 cells; TMD8, 1 μM, 8 h, p-value <0.01",61 genes
same,Expr Log Ratio,TMD8 cells; TNF,-0.16
same,Expr Log Ratio,TMD8 cells; TNFRSF11A,0.052
same,Expr Log Ratio,TMD8 cells; TP53,-0.035
same,Expr Log Ratio,TMD8 cells; YWHAZ,0.016
same,remaining binding at 1 µM,"LYN; @1000nM, read-out: %Control",43%
same,remaining binding at 1 µM,LYN; read-out: %Control @1000nM,43%
same,pIC50,[1],< 6.00
same,difference in %Control from compound Ib at 1 µM,"[2]; @1000nM, JAK3(JH1domain-catalytic)",67.5%
same,remaining binding at 1 µM,"[2]; @1000nM, JAK3(JH1domain-catalytic), read-out: %Control",73%
same,remaining binding at 1 µM,"[2]; JAK3(JH1domain-catalytic), read-out: %Control @1000nM",73%
same,inhibition at 1 µM,"[2]; ScanTK, 1 μM",27%
